The structures appear in SMILES notation. “And” between values parts separate entries of the source, which are not always exact repeats. Identical values can stand only once.

Experiment [1] has as its system IGF-1 mRNA in gastrocnemius. Kind of experiment: Expression of IGF-1 mRNA in gastrocnemius at recovery from tail-suspension muscular atrophy. It counts as in vivo, C57BL/6J mice. The note with it: mice after tail suspension; feed with 0.07 mass % nobiletin for 3 days. From the text: (§1) Male C57BL/6J mice (10-week old) were preliminarily bred for one week, and divided into six groups (control group (Cont), standard feed administration after tail suspension group (Fix), Citrus depressa extract administration after tail suspension group (Fix+SE), polymethoxyflavonoid administration after tail suspension group (Fix+PMF), nobiletin administration after tail suspension group (Fix+NOB), and tangeretin administration after tail suspension group (Fix+TAN), n=8 for the Cont, Fix, Fix+SE, Fix+PMF, Fix+NOB, and Fix+TAN groups).
(§2) After the preliminary breeding, muscular atrophy was induced in the mice of the Fix and Fix+SE groups by tail suspension for two weeks. […]
On day 4 after the change of the feed, the mice were dissected, and the serum IGF-1 concentration, expression of follistatin mRNA in the gastrocnemius, expression of IGF-1 mRNA in the gastrocnemius, and phosphorylation ratio (β+γ) of p70S6K1 in the gastrocnemius were evaluated.
(§3) The serum IGF-1 concentration was measured in the same manner as that used in Example 1. The expression of follistatin mRNA in the gastrocnemius was measured in the same manner as that used in Example 1, except that the hind leg gastrocnemius was extracted from each […], and Assay ID Mm00514982_ml (Applied Biosystems) was used as the primer. […]

For another experiment, the system named is p70S6K1. Kind of experiment: Phosphorylation ratio of p70S6K1 in gastrocnemius at recovery from tail-suspension muscular atrophy. It counts as in vivo, C57BL/6J mice. The settings on record: mice after tail suspension; feed with 0.04 mass % tangeretin for 3 days.
From the text: as §1, §2
On day 4 after the change of the feed, the mice were dissected, and the serum IGF-1 concentration, expression of follistatin mRNA in the gastrocnemius, expression of IGF-1 mRNA in the gastrocnemius, and phosphorylation ratio (β+γ) of p70S6K1 in the gastrocnemius were evaluated. […]
as §3

In the case of `COc1ccc(-c2cc(=O)c3c(OC)c(OC)c(OC)c(OC)c3o2)cc1OC` [NOB, nobiletin], in experiment [1], the “Expression of IGF-1 mRNA in gastrocnemius (AU)” value is 1.75±0.40 AU and 1.75 AU; the “Expression of IGF-1 mRNA in gastrocnemius, Fix+NOB group compared with the Fix group” value came to 107%.

Take `COc1ccc(-c2cc(=O)c3c(OC)c(OC)c(OC)c(OC)c3o2)cc1` [TAN, tangeretin]: in the experiment with p70S6K1, the “Phosphorylation ratio of p70S6K1, Fix+TAN group compared with the Fix group” value is recorded as 112%; the “Phosphorylation ratio of p70S6K1 in gastrocnemius (β + γ) (%)” value was 47.8±11.8% and 47.8%.
